We go through 26 molecules from patent US8431565B2 (priority 2007, dated 2013).

The target of this test is human CB1 receptor (hCB1) (Homo sapiens, UniProt P21554). The test is classed as cell-based.
Sequence of human CB1 receptor (hCB1) (P21554 whole entry): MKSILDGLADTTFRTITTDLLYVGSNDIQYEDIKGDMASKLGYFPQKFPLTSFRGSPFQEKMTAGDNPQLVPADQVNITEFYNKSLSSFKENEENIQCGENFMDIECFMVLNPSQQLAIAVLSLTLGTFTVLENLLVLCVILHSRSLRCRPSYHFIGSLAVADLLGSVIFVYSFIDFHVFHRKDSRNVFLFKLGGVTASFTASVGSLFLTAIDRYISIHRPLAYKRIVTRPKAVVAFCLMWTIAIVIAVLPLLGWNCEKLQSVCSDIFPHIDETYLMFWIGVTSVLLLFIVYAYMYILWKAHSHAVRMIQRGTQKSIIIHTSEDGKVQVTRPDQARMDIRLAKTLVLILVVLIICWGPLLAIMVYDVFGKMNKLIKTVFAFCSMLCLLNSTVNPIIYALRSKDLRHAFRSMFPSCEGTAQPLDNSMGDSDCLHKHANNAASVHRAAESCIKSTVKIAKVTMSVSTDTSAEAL
As usually defined, the EC50 is the concentration at which the effect is half-maximal. A higher EC50 goes with lower potency in that assay. Turning to `CN1CCCn2c(-c3cc(Cl)ccc3F)nc(C(=O)N[C@H](C(=O)N[C@H]3CN4CCC3CC4)C(C)(C)C)c2C1` [Compound 744, 3-(5-chloro-2-fluorophenyl)-N-((S)-3,3-dimethyl-1-oxo-1-((R)-quinuclidin-3-ylamino)butan-2-yl)-8-methyl-6,7,8,9-tetrahydro-5H-imidazo[1,5-a][1,4]diazepine-1-carboxamide], the 50% effective concentration (EC50) was greater than 10 µM.

The molecule `CN1CCN(CC(C)(C)NC(=O)c2nc(-c3cc(Cl)c(F)cc3F)n3c2CN(C)CCC3)CC1` [Compound 879, 3-(5-chloro-2,4-difluorophenyl)-8-methyl-N-(2-methyl-1-(4-methylpiperazin-1-yl)propan-2-yl)-6,7,8,9-tetrahydro-5H-imidazo[1,5-a][1,4]diazepine-1-carboxamide] showed a concentration giving a half-maximal response (EC50) greater than 10 µM.

`CN1CCCn2c(-c3cc(Cl)ccc3F)nc(C(=O)NC(CN3CCCC3)C(C)(C)C)c2C1` (centres unmarked) [Compound 720, 3-(5-chloro-2-fluorophenyl)-N-(3,3-dimethyl-1-(pyrrolidin-1-yl)butan-2-yl)-8-methyl-6,7,8,9-tetrahydro-5H-imidazo[1,5-a][1,4]diazepine-1-carboxamide] displayed an EC50 greater than 10 µM.

`CNC(=O)[C@@H](NC(=O)c1nc(-c2cccc3c2OC(F)(F)O3)n2c1CN(C)CCC2)C(C)(C)C` [Compound 682, (S)-3-(2,2-difluorobenzo[d][1,3]dioxol-4-yl)-N-(3,3-dimethyl-1-(methylamino)-1-oxobutan-2-yl)-8-methyl-6,7,8,9-tetrahydro-5H-imidazo[1,5-a][1,4]diazepine-1-carboxamide] returned an EC50 greater than 10 µM.

Regarding `CN1CCCn2c(-c3cc(Cl)ccc3F)nc(C(=O)N[C@H](CN3CCCC3=O)C(C)(C)C)c2C1` [Compound 769, (S)-3-(5-chloro-2-fluorophenyl)-N-(3,3-dimethyl-1-(2-oxopyrrolidin-1-yl)butan-2-yl)-8-methyl-6,7,8,9-tetrahydro-5H-imidazo[1,5-a][1,4]diazepine-1-carboxamide], the EC50 was greater than 10 µM.

With `CNC(=O)[C@@H](NC(=O)c1nc(C2CCN(C(=O)C(C)C)CC2)n2c1CN(C)CCC2)C(C)(C)C` [Compound 728, (S)-N-(3,3-dimethyl-1-(methylamino)-1-oxobutan-2-yl)-3-(1-isobutyrylpiperidin-4-yl)-8-methyl-6,7,8,9-tetrahydro-5H-imidazo[1,5-a][1,4]diazepine-1-carboxamide], the EC50 was greater than 10 µM.

The molecule `CN1CCCn2c(-c3cc(Cl)c(F)cc3F)nc(C(=O)N3CCC(F)(F)C3)c2C1` [Compound 824, (3-(5-chloro-2,4-difluorophenyl)-8-methyl-6,7,8,9-tetrahydro-5H-imidazo[1,5-a][1,4]diazepin-1-yl)(3,3-difluoropyrrolidin-1-yl)methanone] yielded an EC50 greater than 10 µM.

On to `CN1CCCn2c(-c3cc(F)c(F)cc3F)nc(C(=O)NC(C)(C)CO)c2C1` [Compound 765, N-(1-hydroxy-2-methylpropan-2-yl)-8-methyl-3-(2,4,5-trifluorophenyl)-6,7,8,9-tetrahydro-5H-imidazo[1,5-a][1,4]diazepine-1-carboxamide], for which the EC50 was greater than 10 µM.

The molecule `CNC(=O)[C@@H](NC(=O)c1nc(-c2ccc(C(F)(F)F)cc2C)n2c1CN(C)CCC2)C(C)(C)C` [Compound 632, (S)-N-(3,3-dimethyl-1-(methylamino)-1-oxobutan-2-yl)-8-methyl-3-(2-methyl-4-(trifluoromethyl)phenyl)-6,7,8,9-tetrahydro-5H-imidazo[1,5-a][1,4]diazepine-1-carboxamide] yielded an EC50 greater than 10 µM.

As to `COC(=O)C1CN(C(=O)c2nc(-c3cc(Cl)c(F)cc3F)n3c2CN(C)CCC3)CCC1=O` (centres unmarked) [Compound 826, methyl 1-(3-(5-chloro-2,4-difluorophenyl)-8-methyl-6,7,8,9-tetrabydro-5H-imidazo[1,5-a][1,4]diazepine-1-carbonyl)-4-oxopiperidine-3-carboxylate], the EC50 is greater than 10 µM.

Consider `CNC(=O)[C@@H](NC(=O)c1nc(-c2cccnc2OC(C)C)n2c1CN(C)CCC2)C(C)(C)C` [Compound 641, (S)-N-(3,3-dimethyl-1-(methylamino)-1-oxobutan-2-yl)-3-(2-isopropoxypyridin-3-yl)-8-methyl-6,7,8,9-tetrahydro-5H-imidazo[1,5-a][1,4]diazepine-1-carboxamide], for which the EC50 was greater than 10 µM.

`CNC(=O)[C@@H](NC(=O)c1nc(-c2ccc(C(F)(F)F)cc2C(F)(F)F)n2c1CN(C)CCC2)C(C)(C)C` [Compound 617, (S)-3-(2,4-bis(trifluoromethyl)phenyl)-N-(3,3-dimethyl-1-(methylamino)-1-oxobutan-2-yl)-8-methyl-6,7,8,9-tetrahydro-5H-imidazo[1,5-a][1,4]diazepine-1-carboxamide] came in with an EC50 greater than 10 µM.

`CC(C)(C)[C@H](NC(=O)c1nc(-c2ccccc2)n2c1CNCC2)C(=O)N1CCOCC1` [Compound 733, (S)-N-(3,3-dimethyl-1-morpholino-1-oxobutan-2-yl)-3-phenyl-5,6,7,8-tetrahydroimidazo[1,5-a]pyrazine-1-carboxamide] came in with an EC50 greater than 10 µM.

In the case of `CNC(=O)C1(NC(=O)c2nc(-c3cc(Cl)c(F)cc3F)n3c2CN(C)CCC3)CC1` [Compound 905, 3-(5-chloro-2,4-difluorophenyl)-8-methyl-N-(1-(methylcarbamoyl)cyclopropyl)-6,7,8,9-tetrahydro-5H-imidazo[1,5-a][1,4]diazepine-1-carboxamide], the EC50 is greater than 10 µM.

For `CNC(=O)[C@@H](NC(=O)c1nc(-c2ccc(=O)n(C)c2)n2c1CN(C)CCC2)C(C)(C)C` [Compound 708, (S)-N-(3,3-dimethyl-1-(methylamino)-1-oxobutan-2-yl)-8-methyl-3-(1-methyl-6-oxo-1,6-dihydropyridin-3-yl)-6,7,8,9-tetrahydro-5H-imidazo[1,5-a][1,4]diazepine-1-carboxamide], the EC50 is greater than 10 µM.

In turn, `CNC(=O)[C@@H](NC(=O)c1nc(-c2ccc(OC(C)C)cc2)n2c1CN(C)CCC2)C(C)(C)C` [Compound 649, (S)-N-(3,3-dimethyl-1-(methylamino)-1-oxobutan-2-yl)-3-(4-isopropoxyphenyl)-8-methyl-6,7,8,9-tetrahydro-5H-imidazo[1,5-a][1,4]diazepine-1-carboxamide] showed an EC50 greater than 10 µM.

Molecule `CN1CCCn2c(-c3cc(F)c(F)cc3F)nc(C(=O)N3CCC4(CCN(C)C4=O)CC3)c2C1` [Compound 788, 2-methyl-8-(8-methyl-3-(2,4,5-trifluorophenyl)-6,7,8,9-tetrahydro-5H-imidazo[1,5-a][1,4]diazepine-1-carbonyl)-2,8-diazaspiro[4.5]decan-1-one] yielded an EC50 greater than 10 µM.

`CN1CCCn2c(-c3cc(C(F)(F)F)ccc3F)nc(C(=O)N[C@H](C(=O)NCCF)C(C)(C)C)c2C1` [Compound 810, (S)-3-(2-fluoro-5-(trifluoromethyl)phenyl)-N-(1-(2-fluoroethylamino)-3,3-dimethyl-1-oxobutan-2-yl)-8-methyl-6,7,8,9-tetrahydro-5H-imidazo[1,5-a][1,4]diazepine-1-carboxamide] returned an EC50 greater than 10 µM.

Consider `CNC(=O)[C@@H](NC(=O)c1nc(-c2ccnc(-c3ccnc(Cl)c3)c2)n2c1CN(C)CCC2)C(C)(C)C` [Compound 625, (S)-3-(2′-chloro-2,4′-bipyridin-4-yl)-N-(3,3-dimethyl-1-(methylamino)-1-oxobutan-2-yl)-8-methyl-6,7,8,9-tetrahydro-5H-imidazo[1,5-a][1,4]diazepine-1-carboxamide], for which the EC50 was greater than 10 µM.

As to `CNC(=O)[C@@H](NC(=O)c1nc(-c2cc(F)c(F)cc2F)n2c1CN(C(C)=O)CCC2)C(C)(C)C` [Compound 818, (S)-8-acetyl-N-(3,3-dimethyl-1-(methylamino)-1-oxobutan-2-yl)-3-(2,4,5-trifluorophenyl)-6,7,8,9-tetrahydro-5H-imidazo[1,4]diazepine-1-carboxamide], the EC50 is greater than 10 µM.

In turn, `CC1CCN(CC(C)(C)NC(=O)c2nc(-c3cc(Cl)c(F)cc3F)n3c2CN(C)CCC3)CC1` [Compound 880, 3-(5-chloro-2,4-difluorophenyl)-8-methyl-N-(2-methyl-1-(4-methylpiperidin-1-yl)propan-2-yl)-6,7,8,9-tetrahydro-5H-imidazo[1,5-a][1,4]diazepine-1-carboxamide] yielded an EC50 greater than 10 µM.

`CNC(=O)[C@@H](NC(=O)c1nc(-c2ccnc(C)c2)n2c1CN(C)CCC2)C(C)(C)C` [Compound 638, (S)-N-(3,3-dimethyl-1-(methylamino)-1-oxobutan-2-yl)-8-methyl-3-(2-methylpyridin-4-yl)-6,7,8,9-tetrahydro-5H-imidazo[1,5-a][1,4]diazepine-1-carboxamide]: the concentration for a half-maximal effect (EC50) is greater than 10 µM.

With `CNC(=O)[C@H]1CCN(C(=O)c2nc(-c3cc(Cl)c(F)cc3F)n3c2CN(C)CCC3)C1` [Compound 809, (S)-1-(3-(5-chloro-2,4-difluorophenyl)-8-methyl-6,7,8,9-tetrahydro-5H-imidazo[1,5-a][1,4]diazepine-1-carbonyl)-N-methylpyrrolidine-3-carboxamide], the half-maximal effective concentration (EC50) is greater than 10 µM.

`CN1CCCn2c(-c3cc(F)c(F)cc3F)nc(C(=O)N3CCC4(CCNC4=O)CC3)c2C1` [Compound 787, 8-(8-methyl-3-(2,4,5-trifluorophenyl)-6,7,8,9-tetrahydro-5H-imidazo[1,5-a][1,4]diazepine-1-carbonyl)-2,8-diazaspiro[4.5]decan-1-one] came in with an EC50 greater than 10 µM.

In turn, `CC(=O)NC[C@@H](NC(=O)c1nc(-c2cc(Cl)ccc2F)n2c1CN(C)CCC2)C(C)(C)C` [Compound 770, (S)-N-(1-acetamido-3,3-dimethylbutan-2-yl)-3-(5-chloro-2-fluorophenyl)-8-methyl-6,7,8,9-tetrahydro-5H-imidazo[1,5-a][1,4]diazepine-1-carboxamide] returned an EC50 greater than 10 µM.

The molecule `CNC(=O)[C@@H](NC(=O)c1nc(C2CCN(S(=O)(=O)c3ccccc3)CC2)n2c1CN(C)CCC2)C(C)(C)C` [Compound 727, (S)-N-(3,3-dimethyl-1-(methylamino)-1-oxobutan-2-yl)-8-methyl-3-(1-(phenylsulfonyl)piperidin-4-yl)-6,7,8,9-tetrahydro-5H-imidazo[1,5-a][1,4]diazepine-1-carboxamide] came in with a half-maximal effective concentration (EC50) greater than 10 µM.
